Data set [1] has as its system whole-cell brain preparations. In kind it is cell-based.
In data set [2] the test system is Isolated mitochondria from brain. Type of data set: cell-based, rat.
The conditions of data set [3]: rat, in vivo.
Data set [4] concerns rats. The note with it: rat, in vivo.
Data set [5] concerns rats fed a high-fat diet and sucrose supplemented (5%) drinking water. The following applies: rat, in vivo.
The test system of data set [6] is Isolated mitochondria from liver. In kind it is cell-based, rat.
Data set [7] relates to rats. The note with it: rat, in vivo. This is another data set of the same source.

Each structure is given as a SMILES string.

With `O=[N+]([O-])c1ccc(O)c([N+](=O)[O-])c1` [DNP, 2,4-dinitrophenol], the uncoupling result in data set [1] is on record as “neither DNP nor DNPME was found to uncouple”. The “mitochondrial uncoupling (oxygen consumption)” value in data set [2] was “uncoupled both tissues”. In data set [3], the “peak DNP liver concentrations” value is about 60 µM, the “peak plasma DNP concentration” value was about 120 µM, the “peak plasma DNP concentrations” value is about 380 µM and the “time of peak plasma concentrations of DNP after injection” value was determined as 1 h. For the same compound, in the data set with rats [4], the “ratio of effective to toxic dose” value was 0.2 and the “toxic threshold of chronic treatment” value was determined as 1 mg/kg. Moreover, in data set [5], the “lowest dose effective at lowering liver TAG” value stood at 5 mg/kg. Also, the “mitochondrial uncoupling (oxygen consumption)” value in data set [6] is “uncoupled both tissues”. Moreover, in the data set on rats [7], the “lowest dose where systemic toxicities may be observed” value stood at 25 mg/kg; the “mortality acutely after IP injection” value is recorded as “rapid dose-dependent mortality”; the “rectal temperature after IP injection” value is “large, dose-dependent increase”. In addition, the “doses causing increase in rectal temperatures and mortality” value in the data set with rats [7] (ip) is on record as “above 10 mg/kg”.

The record behind these values is patent US12168639B2 (priority 2013, dated 2024).
